Results from patent US10590121B2, “Kinase inhibitors and methods for making and using” (Rigel Pharmaceuticals, Inc., priority 2017, dated 2020).
Each block holds one compound with its values, some of them ahead of it.

What was measured:
[1] = tested on: LPS induced IL23p19 in THP-1 cells; assay: LPS Induced IL23p19 in THP-1 Cells (with IFNγ Primed) Assay; type: cell-based; settings: Homo sapiens; THP-1 cells primed with IFNγ 50 ng/mL, 1 μg/mL LPS, 18 hours, 10 pt; read-out: IL23-p19 ELISA, THP1-IFNy, LPS, 10 pt EC50
Source text: LPS Induced IL23p19 in THP-1 Cells (with IFNγ Primed) Assay
THP-1 Cells (ATCC, Cat # TIB-202), Dimethyl Sulfoxide (DMSO) (Sigma-Aldrich, Cat # D2650), RPMI 1640 (Cellgro, Cat #10-040-CM), Fetal Bovine Serum (Sigma, Cat # F4135), Albumin From Bovine Serum (BSA) (Sigma-Aldrich, Cat # A7906), LPS (Serotype K-235, Sigma, Product Number L 2143), IFNγ (Peprotech, Cat #300-02), Capture antibody: Human IL-23p19 ELISA (e-Bioscience, Cat. #14-7238-85), Detection antibody: Primary Mouse Biotinylated anti-human IL-12 (p40/p70) (e-Bioscience, Cat. #13-7129-85), Secondary HRP-conjugated Streptavidin (R&D Systems, Cat # DY998), 1×PBST Washing Buffer (PBS-Tween tablet) (VWR International, Cat #80058-558), ELISA Blocking Buffer (PBS with 1% BSA), ELISA Dilution Buffer (PBS with 1% BSA), 384 Well Flat-Bottom, MaxiSorp Black Immuno Plates (Thermo Scientific, Cat #12-565-346), 384 Well Flat-Bottom, White Tissue Culture Plates (Thermo Scientific, Cat #12-565-343), Super Signal ELISA Pico Chemiluminescent Substrate (Thermo Scientific, Cat #37070), Cell Titer Glo reagent (Promega, Cat # G7573), Positive control, IKK2VI inhibitor (Calbiochem, Cat #401483), AquaMax 4000 plate washer (Molecular Devices), Luminometer, Wallac Victor2 1420 Multilabel Counter.
On day 1, 50K/well THP-1 cells were seeded and primed with IFNγ (50 ng/mL) in 384-well plates for about 18 hours in RPMI media with 10% FBS. On day 2, the compound was serially diluted in DMSO from 5 mM in 3-fold dilutions, and then diluted 1:125 in RPMI media with 10% FBS. 50 μL/well 2× compound was added to 50 μL/well THP-1 cells (with IFNγ primed) in duplicate in 384 well tissue culture plates. The cells were pre-incubated with compound for 1 hour at 37° C., 5% CO2 before addition of 10 μL/well 11×LPS to give a final concentration of 1 μg/mL LPS. Day 3, after stimulation for 18 hours at 37° C., 5% CO2, the assay plate was centrifuged and 70 μL/well supernatant was harvested. IL-23p19 protein in 70 μL/well of supernatant was measured by sandwich ELISA, and 25 μl/well Cell Titer Glo reagent was added to the remaining cells to measure compound toxicity.
Human IL-23p19 Sandwich ELISA:
Maxisorp immuno ELISA plates were pre-coated with 25 μL/well of anti-IL-23p19 capture antibody (2.5 ug/mL) in PBS overnight at room temperature. After washing with 1×PBST, the plates were blocked using 100 μL/well of 1% BSA in PBS for 2 hours at room temperature. The plates were washed three times with 1×PBST and 70 μL/well supernatant were added. The plates were incubated at room temperature for 2 hours with shaking and washed three times with 1×PBST. 25 μL/well of biotin labeled anti-IL-12 (p40/p70) detection antibody (100 ng/mL) in PBS with 1% BSA was added and the plates were incubated at room temperature for 2 hours with shaking. After washing three times with 1×PBST, 25 μL/well of streptavidin-HRP (1:200) in PBS with 1% BSA was added and the plates were incubated at room temperature for 20 minutes with shaking. The plates were washed three times with 1×PBST and 25 μL/well of Super Signal ELISA Pico Chemiluminescent Substrate were added. The plates were read with a luminometer, and the chemiluminescence values were entered into Athena (Rigel) for curve fitting, EC50 calculation, and database storage.

[2] = tested on: LPS induced IL-23 (p19/p40) in DC cells differentiated from human PBMC; assay: IL23-p19 ELISA, dendritic cells (DC differentiated from human PBMC), IFNγ primed, LPS stimulated; type: cell-based; settings: human PBMC-derived dendritic cells, 1 μg/ml LPS, 18 hours, 10 pt
Experimental: Compound Screening Using DC Cells
1. Differentiation of PBMC's to DC Cells:
Human PBMC cells (400 million) obtained from the vendor were transferred into a T-175 flask containing 15 ml RPMI media (10% FBS) and incubate for 2 hours at 37° C. After 2 hours, the media including floating cells was aspirated out carefully and 12 ml of fresh RPMI media (10% FBS) containing GMCSF (100 ng/ml) and IL4 (20 ng/ml) was added, and the flask was kept in a 37° C. incubator for 7 days.
After 3 days, fresh GMCSF (100 ng/ml) and IL4 (20 ng/ml) were added to the flask and the incubation continued. After 7 days, the fully differentiated cells were harvested by spinning down (1200 rpm/5 min) and aspirating the media. The cells were suspended in fresh RPMI media (10% FBS) containing 50 ng/ml IFNγ (1000 U/ml) and then plated (50K/well in 100 μl) onto a white clear bottom 96 well plate and left in a 37° C. incubator for 24 hours.
2. Addition of Compounds:
After 24 hours incubation, 100 μl of RPMI media was added containing 2× concentrated test compound per well to the above cell-culture media (final concentration becomes 1×) and the plates were pre-incubated for 1 hour at 37° C. before stimulating with LPS.
After 1 hour compound pre-incubation, 10 μl per well of 20× concentrated LPS solution in RPMI media was added to give a final concentration of 1 μg/ml. The mixture was shaken and incubated the plates at 37° C. for an additional 18 hours.
155 μl of the supernatant was harvested from each well carefully (without the tip touching the bottom of the well) and to the remaining 50 μl/well of the cell culture plate was added 50 μl of Cell Titer Glo reagent. The mixture was incubated for 1-2 minutes on a shaker and the plate was read for luminescence intensity to determine the compound cytotoxicity. The cell culture supernatant collected above was used to carry out IL23 ELISA (65 μl-Supernatant) and IL10 ELISA (90 μl-Supernatant) as described below.
Human IL-23 (p19/p40) ELISA Protocol (e-Biosciences)
To 10.5 ml PBS add 50 μl of anti-IL23 (p19) was added capture antibody (2.5 μg/ml). The mixture was mixed well and 100 μl of the coating solution was added to each well of the 96 well white plates from Pierce. The wells were covered and incubated overnight at 4° C.
The anti-IL23 (p19)-antibody-coated plates were washed 2× using TBST (use plate washer) and blocked using 200 μl of 0.5% Casein for 1.5-2 hours at room temperature with shaking.
The plates were washed 2× using TBST and the supernatant was transferred (65 μl/well) to the above pre-blocked/IL23 (p19)-antibody-coated 96 well plate, and incubated at room temperature for 1.5 hours with shaking.
The plates were washed 4× using TBST (plate washer) and 100 μl/well detection antibody solution prepared from 2 μl of biotin labeled anti-IL-12 (p40/p70) antibody in 11 ml 1% BSA/PBS solution (1-5000 dilution) was added. The plates were incubated for 1 hour with shaking at room temperature.
Again, the plates were washed 4× with TBST and 100 μl of HRP labeled Streptavidin (R&D Systems) solution (10 μl/10 ml 1% BSA solution) was added, and the plates were incubated at room temperature for another 45 minutes with shaking.
After 45 minutes, the plates were washed with TBST 4× and 100 ul/well Super Signal ELISA Pico Chemiluminescent Substrate from Pierce (3.5 ml A+3.5 ml B+3.5 ml MQ water) was added. The plates were shaken for 1-2 minutes then read on a plate reader.

SMILES: O=C(Nc1ccc(NCCN2CCOCC2)cc1N1CCCCC1)c1csc(-c2cn[nH]c2)n1 [I-74, N-(4-((2-morpholinoethyl)amino)-2-(piperidin-1-yl)phenyl)-2-(1H-pyrazol-4-yl)thiazole-4-carboxamide]
EC50 [2]: 0.104 µM | EC50 [1]: 0.0514 µM

SMILES: O=C(Nc1cc(CC(=O)N2CCOCC2)ccc1N1CCCCC1)c1ccc(-c2cn[nH]c2)o1 [I-64, N-(5-(2-morpholino-2-oxoethyl)-2-(piperidin-1-yl)phenyl)-5-(1H-pyrazol-4-yl)furan-2-carboxamide]
EC50 [2]: 1.32 µM | EC50 [1]: 3.68 µM

SMILES: COc1ccc(N2CCOCC2)cc1NC(=O)c1cccc(-c2cn[nH]c2)n1 [I-39, N-(2-methoxy-5-morpholinophenyl)-6-(1H-pyrazol-4-yl)picolinamide]
EC50 [2]: 3.23 µM | EC50 [1]: 6.59 µM

SMILES: O=C(Nc1ccc(NCCN2CCOCC2)cc1N1CCCCC1)c1cccc(-c2cn[nH]c2)n1 [I-72, N-(4-((2-morpholinoethyl)amino)-2-(piperidin-1-yl)phenyl)-6-(1H-pyrazol-4-yl)picolinamide]
EC50 [2]: 1.84 µM | EC50 [1]: 0.87 µM

SMILES: O=C(Nc1ccc(N2CCOCC2)cc1N1CCOCC1)c1csc(-c2cn[nH]c2)n1 [I-15, N-(2,4-dimorpholinophenyl)-2-(1H-pyrazol-4-yl)thiazole-4-carboxamide]
EC50 [2]: 0.484 µM | EC50 [1]: 0.173 µM

SMILES: O=C(Nc1cc(CCN2CCOCC2)ccc1N1CCCCC1)c1cccc(-c2cn[nH]c2)n1 [I-66, N-(5-(2-morpholinoethyl)-2-(piperidin-1-yl)phenyl)-6-(1H-pyrazol-4-yl)picolinamide]
EC50 [2]: 0.0418 µM | EC50 [1]: 0.0924 µM

SMILES: O=C(Nc1ccc(N2CCOCC2)cc1N1CCC(F)(F)CC1)c1csc(-c2cn[nH]c2)n1 [I-21, N-(2-(4,4-difluoropiperidin-1-yl)-4-morpholinophenyl)-2-(1H-pyrazol-4-yl)thiazole-4-carboxamide]
EC50 [2]: 1 µM | EC50 [1]: 0.465 µM

SMILES: O=C(Nc1cc(N2CCOCC2)ccc1N1CCCCC1)c1cccc(-c2cn[nH]c2)n1 [I-75, N-(5-morpholino-2-(piperidin-1-yl)phenyl)-6-(1H-pyrazol-4-yl)picolinamide]
EC50 [1]: 52.8 µM

Continued, in another order:

EC50 [1]: 2.52 µM
SMILES: O=C(Nc1ccc(N2CCOCC2)cc1N1CCC(F)(F)CC1)c1cccc(-c2cn[nH]c2)n1 [I-19, N-(2-(4,4-difluoropiperidin-1-yl)-4-morpholinophenyl)-6-(1H-pyrazol-4-yl)picolinamide]

EC50 [1]: 0.314 µM
SMILES: O=C(Nc1ccc(N2CCOCC2)cc1N1CCC(F)CC1)c1cccc(-c2cn[nH]c2)n1 [I-4, N-(2-(4-fluoropiperidin-1-yl)-4-morpholinophenyl)-6-(1H-pyrazol-4-yl)picolinamide]
EC50 [2]: 3.6 µM

EC50 [1]: 0.178 µM
SMILES: O=C(Nc1ccc(N2CCOCC2)cc1N1CCOCC1)c1ccc(-c2cn[nH]c2)o1 [I-14, N-(2,4-dimorpholinophenyl)-5-(1H-pyrazol-4-yl)furan-2-carboxamide]
EC50 [2]: 1.92 µM

EC50 [1]: 0.0637 µM
SMILES: CN1CCN(c2ccc(NC(=O)c3ccc(-c4cn[nH]c4)o3)c(N3CCC(F)CC3)c2)CC1 [I-8, N-(2-(4-fluoropiperidin-1-yl)-4-(4-methylpiperazin-1-yl)phenyl)-5-(1H-pyrazol-4-yl)furan-2-carboxamide]
EC50 [2]: 0.182 µM

EC50 [1]: 0.0259 µM
SMILES: CN1CCN(c2ccc(NC(=O)c3csc(-c4cn[nH]c4)n3)c(N3CCCCC3)c2)CC1 [I-3, N-(4-(4-methylpiperazin-1-yl)-2-(piperidin-1-yl)phenyl)-2-(1H-pyrazol-4-yl)thiazole-4-carboxamide]
EC50 [2]: 0.0712 µM

EC50 [1]: 3.38 µM
SMILES: COc1ccc(N2CCOCC2)cc1NC(=O)c1ccc(-c2cn[nH]c2)o1 [I-40, N-(2-methoxy-5-morpholinophenyl)-5-(1H-pyrazol-4-yl)furan-2-carboxamide]

EC50 [1]: 1.27 µM
SMILES: O=C(Nc1ccc(CN2CCOCC2)cc1N1CCCCC1)c1ccc(-c2cn[nH]c2)o1 [I-49, N-(4-(morpholinomethyl)-2-(piperidin-1-yl)phenyl)-5-(1H-pyrazol-4-yl)furan-2-carboxamide]
EC50 [2]: 2.96 µM

EC50 [1]: 2.72 µM
SMILES: O=C(Nc1ccc(N2CCOCC2)cc1N1CCCCC1)c1cccc(-c2cn[nH]c2)n1 [I-36, N-(4-morpholino-2-(piperidin-1-yl)phenyl)-6-(1H-pyrazol-4-yl)picolinamide]
EC50 [2]: 1.3 µM

EC50 [1]: 2.69 µM
SMILES: O=C(Nc1cnc(N2CCOCC2)cc1N1CCCCC1)c1ccc(-c2cn[nH]c2)o1 [I-43, N-(6-morpholino-4-(piperidin-1-yl)pyridin-3-yl)-5-(1H-pyrazol-4-yl)furan-2-carboxamide]
EC50 [2]: 3.45 µM

EC50 [1]: 2.86 µM
SMILES: O=C(Nc1ccc(N2CCOCC2)cc1N1CCCC1)c1ccc(-c2cn[nH]c2)o1 [I-23, N-(4-morpholino-2-(pyrrolidin-1-yl)phenyl)-5-(1H-pyrazol-4-yl)furan-2-carboxamide]
EC50 [2]: 2.27 µM

EC50 [1]: 9.78 µM
SMILES: O=C(Nc1ccc(CCN2CCOCC2)cc1N1CCCCC1)c1ccc(-c2cn[nH]c2)o1 [I-55, N-(4-(2-morpholinoethyl)-2-(piperidin-1-yl)phenyl)-5-(1H-pyrazol-4-yl)furan-2-carboxamide]
